Reference: publication PMC7002685, “Inhibition of vascular calcification by inositol phosphates derivatized with ethylene glycol oligomers” (Nature Communications, 2020)
Several values for one entry are separate records, joined by “and”; a condition that tells them apart may be missing. Identical values can stand only once. Like-named read-outs stand apart in the source and are kept apart here.

Tests used:
Transporter, GABA = biological target: T1, Transporter, GABA (Rattus norvegicus, UniProt P23978); assay: Off-target 226400; format: binding
T1 construct: purchased Eurofins Panlabs Discovery Services Taiwan, Ltd
Method: (§1) The potential off-target activity of 10 µM (OEG2)2-IP4 was assessed against a panel of 87 enzymes, receptors, or ion channels that are used in standard safety pharmacology screens.
(§2) 3.2. Off-target screening assay
(§3) The experiments were conducted by a contract research organization (Eurofins Panlabs Discovery Services Taiwan, Ltd.) and details on the respective assays can be retrieved via the catalog number provided in Supplementary Table 11 from the company’s webpage
(§4) (https://www.eurofinsdiscoveryservices.com/). […]
(§5) At sacrifice the left tibia of animals of the rat model with dietary adenine/high-phosphate-induced uremia and VC was collected, fixed with 70% v/v EtOH and embedded in methyl methacrylate. The trabecular bone compartment is known to be the most metabolic active i.e. actively re-structured bone compartment in CKD. Therefore, histomorphometric and micro-computed tomography (µCT) analysis of bone was performed on the trabecular compartment. Tibial sections were Goldner-stained for histomorphometric analysis of the proximal metaphysis using the AxioVision Release 4.5 software, as […]
(§6) described previously5. […]

[1] = biological target: T2, Transporter, Norepinephrine (NET) (Homo sapiens, UniProt P23975); assay: Off-target 204410; format: binding
T2 construct: purchased Eurofins Panlabs Discovery Services Taiwan, Ltd
Method: as §1, §2, §3, §4, §5, §6

Chemokine CXCR2 (IL-8RB) = biological target: T3, Chemokine CXCR2 (IL-8RB) (Homo sapiens, UniProt P25025); assay: Off-target 244500; format: binding
T3 construct: purchased Eurofins Panlabs Discovery Services Taiwan, Ltd
Method: as §1, §2, §3, §4, §5, §6

[2] = tested on: THP-1-derived macrophages; assay: Macrophage viability, compound without CPP2; format: cell-based, human
Method: Cell viability was assessed using the MTS assay (CellTiter 96® Aqueous One Solution Cell Proliferation Assay, G3580; Promega, Madison, WI, USA) according to the manufacturer’s instructions. Assays using combined treatment of CPPs or CaP and test compounds were performed in 24-well plates using 20,000 cells per well and assays using test compounds only were performed in a 96-well plate format with a seeding density of 10,000 (VSMC) or 50,000 (THP-1) cells per well, respectively. For controls, cells were treated with respective complete medium only and results were calculated as % of control. […]
(n = 3 independent experiments).

[3] = PK i.v. bolus in healthy and adenine/high-phosphate-diet (uremic) rats; format: in vivo, male Sprague-Dawley rats; design: plasma concentration (Figure 4g): unit not given here; conditions: for AUC(0-inf) / Cmax / clearance / half-life / AUC(0-t) / MRT last: serum, 10 mg/kg i.v. bolus; for AUC(0-t): read-out: AUC0-240 (converted); for MRT last: read-out: MRT0-240 (converted)
Method: For many drugs, the PK profile depends on the patient’s renal status. Therefore, (OEG2)2-IP4 PK profile was also determined in an adenine and high-phosphate-diet-induced rat model of uremia, in which the compound was administered after serum creatinine levels had increased by fourfold relative to baseline (Fig. 4g, h). […] Similar results were observed following s.c. administration (Supplementary Table 5).
To study PK in uremic animals, male Sprague-Dawley rats (Charles River Laboratories, L’Arbresle, France) were housed two per cage with free access to water and standard chow (rat/mouse maintenance diet, SSNIFF Spezialdiäten GmbH, Soest, Germany) and submitted to a 12-h light/dark cycle. Animals were fed a low-protein (2.5%) diet containing high phosphorus (1.3% phosphorus and 0.7% calcium) and 0.3% adenine to induce uremia (SSNIFF Spezialdiäten GmbH). Control animals were fed same diet but without adenine. Every 10 days, a sample of blood was punctured at the tail vein of each animal. Serum and urine creatinine, calcium, and phosphorus were then assessed using standard colorimetric biochemistry analysis (Cobas Mira, Roche, Basel, Switzerland). When a fourfold increase of creatinine was observed compared to control, the rat was considered uremic and suitable for PK experiments. The method was validated using eight animals on control- and adenine-supplemented diet respectively. For PK studies, on the morning of the experimental day, a catheter was inserted in the right carotid artery under halothane anesthesia. Subsequently, rats were allowed to recover for 3 h and uremic and non-uremic rats, respectively, were assigned to three groups of six rats each. […] Blood aliquots were drawn after drug administration, centrifuged, decanted, and stored at −80 °C until serum drug quantification by LC-MS, as well as analysis of serum creatinine, calcium, and phosphorus (Cobas Mira).
The bioanalytical method for (OEG2)2-IP4 in rat plasma was further optimized, qualified, and applied to the comparative PK study in adenine and high-phosphate diet-induced VC vs. vitamin D-induced VC animals. The LC-MS/MS analyses were carried out using a Dionex Ultimate RSLC ultra-high-pressure liquid chromatography (UHPLC) system (Thermo Fisher Scientific) coupled with a TSQ Quantiva^TM triple quadrupole mass spectrometer. The samples were stored at 5 °C in the autosampler prior to and during the analyses. […] Gradient elution (solvent A, 20 mM ammonium acetate in water (pH 5); solvent B, ACN) was used according to the program reported in Supplementary Table 18. The injection volume was 10 µL. MS/MS parameters (MRM acquisition, cycle time 0.2 s) for (OEG2)2-IP4 are reported in Supplementary Table 19 and the ESI source, working in negative ionization mode, applied the following parameters: static spray voltage 3000 V ion transfer tube and vaporizer temperatures at 400 and 100 °C, respectively; sheath and auxiliary gas (nitrogen) flow rates at 80 and 3 (arbitrary units). For the quantitative determination in rat plasma, product ion m/z 158.9 was selected because it provided the best sensitivity and selectivity. Calibration curve and quality control samples were prepared by adding 2 μL of working solution to 38 μL rat blank K3EDTA plasma (Biochemed, Winchester, VA) and precipitating plasma protein by addition of 120 μL of MeOH including internal standard OEG11-IP5. Samples were vortexed 1 min and centrifuged at (22,000 × g, 4 °C, 10 min). Supernatants (90 μL) were then transferred into a glass vial with insert and injected onto LC-MS/MS system. Both in adenine and high-phosphate diet-induced VC and vitamin D-induced VC rat PK samples were prepared for analysis in an analogous manner as done for spiked samples (assay volume 40 μL). The LLOQ and LOD in rat plasma for (OEG2)2-IP4 were 50 and 10 ng/mL, respectively. The ULOQ and detection was 50,000 ng/mL.

[4] = male, Sprague-Dawley, rat, iv, 10 mg/kg, Healthy
[5] = male, Sprague-Dawley, rat, iv, 10 mg/kg, Uremic

T3 sequence (P25025 whole entry): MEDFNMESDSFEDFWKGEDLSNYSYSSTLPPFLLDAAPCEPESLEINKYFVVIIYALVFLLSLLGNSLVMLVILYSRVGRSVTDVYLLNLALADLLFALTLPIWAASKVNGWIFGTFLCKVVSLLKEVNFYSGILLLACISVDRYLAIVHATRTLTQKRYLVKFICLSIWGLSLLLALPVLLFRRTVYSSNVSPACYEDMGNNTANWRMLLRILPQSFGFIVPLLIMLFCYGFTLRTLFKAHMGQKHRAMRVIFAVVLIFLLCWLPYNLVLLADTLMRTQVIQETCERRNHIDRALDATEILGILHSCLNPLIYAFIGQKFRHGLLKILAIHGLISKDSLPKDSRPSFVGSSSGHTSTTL
T2 sequence (P23975 whole entry): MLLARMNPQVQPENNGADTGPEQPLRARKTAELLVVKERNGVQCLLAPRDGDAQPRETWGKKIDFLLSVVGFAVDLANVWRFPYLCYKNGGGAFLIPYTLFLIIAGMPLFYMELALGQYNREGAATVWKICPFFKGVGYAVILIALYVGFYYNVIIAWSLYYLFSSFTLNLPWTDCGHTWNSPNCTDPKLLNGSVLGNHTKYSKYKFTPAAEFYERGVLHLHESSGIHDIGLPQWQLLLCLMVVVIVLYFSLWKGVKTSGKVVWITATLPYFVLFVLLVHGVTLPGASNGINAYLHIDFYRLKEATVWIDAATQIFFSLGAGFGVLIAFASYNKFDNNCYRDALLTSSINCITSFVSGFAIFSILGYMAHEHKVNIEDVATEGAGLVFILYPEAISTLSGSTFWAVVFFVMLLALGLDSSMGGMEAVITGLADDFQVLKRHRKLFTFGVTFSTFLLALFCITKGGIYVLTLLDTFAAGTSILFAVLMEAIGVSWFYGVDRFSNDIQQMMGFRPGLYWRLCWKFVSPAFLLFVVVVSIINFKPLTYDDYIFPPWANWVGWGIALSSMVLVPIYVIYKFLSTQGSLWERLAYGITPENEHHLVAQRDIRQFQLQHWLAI

`COCCOCCO[C@@H]1[C@@H](OP(=O)(O)O)[C@H](OCCOCCOC)[C@@H](OP(=O)(O)O)[C@@H](OP(=O)(O)O)[C@H]1OP(=O)(O)O` [(OEG2)2-IP4, 4,6-Di-O-(methoxy-diethyleneglycol)-myo-inositol-1,2,3,5-tetrakis(phosphate)] showed an inhibition at 10 µM (Transporter, GABA) of 4%, an inhibition at 10 µM [1] of 20% and an inhibition at 10 µM (Chemokine CXCR2 (IL-8RB)) of 6%. The macrophage viability [2] was “does not alter viability”, the “fold longer t1/2 in uremic rats” value ([3]; 10 mg/kg i.v.) was 1.6 fold and the “plasma concentration (Figure 4g)” value ([3]; Healthy, i.v., Time 5 min, individual rats) was 34.3554 and 28.9453 and 26.4893 and 36.6347 and 33.1433. The “plasma concentration (Figure 4g)” value ([3]; Healthy, i.v., Time 0.25 h, individual rats) was 30.5208 and 13.9972 and 12.439 and 10.9827 and 13.2633 and 11.7166, the “plasma concentration (Figure 4g)” value ([3]; Healthy, i.v., Time 0.5 h, individual rats) was 27.5306 and 9.488 and 4.56 and 3.6178 and 4.794 and 4.014 and the “plasma concentration (Figure 4g)” value ([3]; Healthy, i.v., Time 1 h, individual rats) was 9.6556 and 4.29 and 0.6765 and 0.5745 and 0.5328 and 0.7985. For the same compound, the “plasma concentration (Figure 4g)” value ([3]; Healthy, i.v., Time 2 h, individual rats) was 7.991 and 1.14 and 0.125 and 0.07468 and 0.07899 and 0.1206, the “plasma concentration (Figure 4g)” value ([3]; Healthy, i.v., Time 3 h, individual rats) was 3.3004 and 0.5084 and 0.05745 and 0.03303 and 0.0316 and 0.04883 and the “plasma concentration (Figure 4g)” value ([3]; Healthy, i.v., Time 4 h, individual rats) was 2.7015 and 0.1767 and 0.01436 and 0.02585 and 0.02298 and 0.0316. For the same compound, the “plasma concentration (Figure 4g)” value ([3]; Uremic, i.v., Time 5 min, individual rats) was 32.8173 and 29.5312 and 43.7899 and 28.895 and 62.6472 and 41.0266, the “plasma concentration (Figure 4g)” value ([3]; Uremic, i.v., Time 10 min, individual rats) was 43.2182 and 28.9366 and the “plasma concentration (Figure 4g)” value ([3]; Uremic, i.v., Time 0.25 h, individual rats) was 27.5292 and 20.3309 and 31.0464 and 22.8615. For the same compound, the “plasma concentration (Figure 4g)” value ([3]; Uremic, i.v., Time 0.5 h, individual rats) was 20.0681 and 12.3154 and 17.5978 and 17.7285, the “plasma concentration (Figure 4g)” value ([3]; Uremic, i.v., Time 1 h, individual rats) was 13.305 and 19.9618 and 12.7047 and 6.171 and 9.641 and 11.83 and the “plasma concentration (Figure 4g)” value ([3]; Uremic, i.v., Time 1.5 h, individual rats) was 9.875 and 10.075. The “plasma concentration (Figure 4g)” value ([3]; Uremic, i.v., Time 2 h, individual rats) was 4.81 and 2.841 and 7.088 and 3.03 and 4.689 and 9.284, the “plasma concentration (Figure 4g)” value ([3]; Uremic, i.v., Time 3 h, individual rats) was 1.893 and 4.314 and 1.879 and 2.2534 and the “plasma concentration (Figure 4g)” value ([3]; Uremic, i.v., Time 4 h, individual rats) was 1.159 and 0.6736 and 3.1697 and 1.081 and 1.337. For the same compound, the concentration at 5 min ([3]; male, Sprague-Dawley, rat, plasma, iv, 10 mg/kg, Healthy, i.v., Time 5 min, individual rats, read-out: plasma concentration (Figure 4g)) was 51.8 µM, the concentration at 10 min ([3]; male, Sprague-Dawley, rat, plasma, iv, 10 mg/kg, Healthy, i.v., Time 10 min, individual rats, read-out: plasma concentration (Figure 4g)) was 36.1 µM and the concentration at 10 min ([3]; male, Sprague-Dawley, rat, plasma, iv, 10 mg/kg, Uremic, i.v., Time 10 min, individual rats, read-out: plasma concentration (Figure 4g)) was 46 µM. For the same compound, the concentration at 0.25 h ([3]; male, Sprague-Dawley, rat, plasma, iv, 10 mg/kg, Uremic, i.v., Time 0.25 h, individual rats, read-out: plasma concentration (Figure 4g)) was 27.7 µM, the concentration at 0.5 h ([3]; male, Sprague-Dawley, rat, plasma, iv, 10 mg/kg, Uremic, i.v., Time 0.5 h, individual rats, read-out: plasma concentration (Figure 4g)) was 19 µM and the concentration at 1.5 h ([3]; male, Sprague-Dawley, rat, plasma, iv, 10 mg/kg, Uremic, i.v., Time 1.5 h, individual rats, read-out: plasma concentration (Figure 4g)) was 7.2 µM. It also gave an AUC(0-inf) [3, 4] of 18.5 µM·h, a Cmax [3, 4] of 35 ± 9 µM and a clearance [3, 4] of 17.9 ± 7.7 mL/min/kg. For the same compound, the half-life [3, 4] was 52 ± 14 min, the AUC(0-t) [3, 4] was 17.8 µM·h and the MRT last [3, 4] was 26 min. The AUC(0-inf) [3, 5] was 45.6 µM·h, the Cmax [3, 5] was 43 ± 12 µM and the clearance [3, 5] was 5.8 ± 2 mL/min/kg. For the same compound, the half-life [3, 5] was 83 ± 47 min, the AUC(0-t) [3, 5] was 37 µM·h and the MRT last [3, 5] was 53 min.
